The supplement of paper PMC13380429
± gives the standard deviation of the averaged measurements.

What was measured:
Settings in all cases: 72 h
[1] = system: Caco-2; experiment: drug sensitivity score (DSS) for viability; higher = more toxic; extreme values may be limits of the assay
[2] = system: HepG2; experiment: as above
[3] = system: Vero E6; experiment: as above
[4] = system: U2OS; experiment: as above
[5] = system: Calu-3; experiment: as above
[6] = system: Caco-2; experiment: cell viability relative to DMSO; higher = less toxic
[7] = system: HepG2; experiment: as above
[8] = system: Vero E6; experiment: as above
[9] = system: U2OS; experiment: as above
[10] = system: Calu-3; experiment: as above
[11] = system: Caco-2; experiment: relative viability EC50 (midpoint between 100% and the lowest measured viability); higher = less toxic
[12] = system: HepG2; experiment: as above
[13] = system: Vero E6; experiment: as above
[14] = system: U2OS; experiment: as above
[15] = system: Calu-3; experiment: as above

Compound	drug sensitivity score [1]	drug sensitivity score [2]	drug sensitivity score [3]	drug sensitivity score [4]	drug sensitivity score [5]	cell viability ([6]; 1 nM)	cell viability ([6]; 10 nM)	cell viability ([6]; 100 nM)	cell viability ([6]; 1000 nM)	cell viability ([6]; 10000 nM)	cell viability ([7]; 1 nM)	cell viability ([7]; 10 nM)	cell viability ([7]; 100 nM)	cell viability ([7]; 1000 nM)	cell viability ([7]; 10000 nM)	cell viability ([8]; 1 nM)	cell viability ([8]; 10 nM)	cell viability ([8]; 100 nM)	cell viability ([8]; 1000 nM)	cell viability ([8]; 10000 nM)	cell viability ([9]; 1 nM)	cell viability ([9]; 10 nM)	cell viability ([9]; 100 nM)	cell viability ([9]; 1000 nM)	cell viability ([9]; 10000 nM)	cell viability ([10]; 1 nM)	cell viability ([10]; 10 nM)	cell viability ([10]; 100 nM)	cell viability ([10]; 1000 nM)	cell viability ([10]; 10000 nM)	relative viability EC50 [11]	relative viability EC50 [12]	relative viability EC50 [13]	relative viability EC50 [14]	relative viability EC50 [15]
CC(=O)N[C@H](Cc1ccc2ccccc2c1)C(=O)N[C@H](Cc1ccc(Cl)cc1)C(=O)N[C@H](Cc1cccnc1)C(=O)N[C@@H](CO)C(=O)N[C@@H](Cc1ccc(NC(=O)[C@@H]2CC(=O)NC(=O)N2)cc1)C(=O)N[C@H](Cc1ccc(NC(N)=O)cc1)C(=O)N[C@@H](CC(C)C)C(=O)N[C@@H](CCCCNC(C)C)C(=O)N1CCC[C@H]1C(=O)N[C@H](C)C(N)=O [degarelix]	0	0	0	0	0	90.3%	92.8%	99.9%	90.4%	99.6%	103%	80.7%	112%	91%	110%	95.6%	93.8%	92%	89.8%	101%	97.1%	97%	98.7%	99.9%	101%	103%	104%	91.7%	91.9%	96.6%	> 10 µM	> 10 µM	> 10 µM	> 10 µM	> 10 µM
NC1=NC(=O)N([C@H]2C[C@H](O)[C@@H](CO)O2)CN1 [KP-1212]	0	0	0	0	0	89.9%	104%	89%	103%	99.8%	99.1%	95%	100%	98.3%	93.9%	99.8%	98.7%	97.9%	92.1%	105%	92.6%	102%	95.5%	99.7%	103%	93.3%	90.5%	94.3%	98.9%	98.8%	> 10 µM	> 10 µM	> 10 µM	> 10 µM	> 10 µM
Cc1cc(OCC(=O)O)cc(C)c1Cc1ccc(O)c(C(C)C)c1 [sobetirome]	0	0.4	0.3	0	0	102%	95.7%	92.1%	94.7%	90.5%	100%	103%	96%	96.2%	85%	102%	99.3%	87.9%	96.4%	85.3%	97.5%	99.9%	99.5%	99.5%	100%	102%	96.6%	105%	98.7%	101%	> 10 µM	> 10 µM	> 10 µM	> 10 µM	> 10 µM
Cc1nnc(C(=O)NC(C)(C)c2nc(C(=O)NCc3ccc(F)cc3)c(O)c(=O)n2C)o1 [raltegravir]	0	0	0	0	0	102%	104%	94.4%	94.7%	99.7%	100%	102%	97.6%	118%	90.3%	101%	99.3%	95.7%	97.5%	94.4%	104%	95.9%	100%	97.5%	100%	104%	99.3%	99%	107%	104%	> 10 µM	> 10 µM	> 10 µM	> 10 µM	> 10 µM
CCOc1cc(N)c(Cl)cc1C(=O)NCC1CN(Cc2ccc(F)cc2)CCO1 (stereo not given) [mosapride]	0	0	0	0	0	89.6%	93.4%	99.9%	96.1%	100%	95.4%	99.7%	98.8%	98.3%	101%	99.1%	102%	101%	94.5%	98.3%	101%	95.9%	99%	95.9%	103%	95.7%	87.4%	105%	97.6%	106%	> 10 µM	> 10 µM	> 10 µM	> 10 µM	> 10 µM
O=C1c2ccccc2C(=O)C1c1ccc(Cl)cc1 [chlorindione]	0	0	0	0	0	94.5%	84.3%	104%	95.2%	106%	96.8%	108%	106%	111%	122%	95.1%	95.2%	90.3%	93.6%	108%	99.5%	93.8%	105%	97.4%	95.4%	103%	103%	99.5%	106%	99.7%	> 10 µM	> 10 µM	> 10 µM	> 10 µM	> 10 µM
C=Cc1c(C)c2cc3nc(c(CC(=O)O)c4[n-]c(cc5nc(cc1[n-]2)C(C)=C5CC)c(C)c4C(=O)O)[C@@H](CCC(=O)O)[C@@H]3C.[Cu+2] [chlorophyllin-copper]	0	0	0.1	0	0.7	88.2%	84%	98.7%	95.8%	89.4%	89.6%	104%	82.3%	105%	88.8%	103%	97.3%	95.2%	102%	85.9%	94.9%	97.2%	98.7%	91.9%	88.6%	88.2%	85.4%	104%	104%	75.4%	> 10 µM	> 10 µM	> 10 µM	> 10 µM	> 10 µM
O=C(O)Cc1ccc(CCNS(=O)(=O)c2ccc(Cl)cc2)cc1 [daltroban]	0	0	0	0	0	104%	104%	94.2%	94.1%	94.7%	95%	90.9%	99.8%	104%	95.7%	109%	98.4%	109%	107%	89.5%	102%	95.3%	99.2%	96.1%	99.9%	101%	95.3%	102%	116%	105%	> 10 µM	> 10 µM	> 10 µM	> 10 µM	> 10 µM
CC(=O)Oc1ccccc1C(=O)O [aspirin]	3.8	0	0	0	0	92.4%	89.3%	81%	80%	89.7%	95.2%	100%	93.8%	104%	109%	90.7%	96.7%	90%	96.2%	108%	96.5%	93.5%	104%	98.3%	103%	102%	90.1%	94.1%	92.6%	101%	> 10 µM	> 10 µM	> 10 µM	> 10 µM	> 10 µM
CC(=O)[C@H]1CC[C@H]2[C@@H]3CC[C@H]4C[C@H](O)CC[C@]4(C)[C@H]3CC[C@]12C [allopregnanolone]	0	0	0	0	0	98 ± 0.85%	96.6 ± 1.1%	96.2 ± 8.3%	100 ± 3%	103 ± 7.4%	98.9 ± 6.8%	92.4 ± 6.1%	97.6 ± 7.2%	99 ± 2.6%	92 ± 3.5%	95.5 ± 3.5%	101 ± 4.5%	95 ± 3.5%	97.9 ± 4.7%	98.8 ± 4.5%	98.8 ± 4.2%	99.65 ± 0.92%	98.55 ± 0.35%	100 ± 5%	97.7 ± 0.28%	104 ± 5.9%	102 ± 5.4%	95.05 ± 0.64%	104 ± 5.8%	103 ± 3.8%	> 10 µM	> 10 µM	> 10 µM	> 10 µM	> 10 µM
O=C(N[C@H]1CN2CCC1CC2)c1ccc2c(c1)OCCO2	0	0	0	0	0	93.6%	95.2%	87.5%	101%	99.1%	101%	93%	108%	97.7%	94.6%	100%	89.3%	97.2%	91.3%	107%	98.8%	94.8%	97.8%	95.3%	97.2%	93.6%	98.3%	102%	102%	99.3%	> 10 µM	> 10 µM	> 10 µM	> 10 µM	> 10 µM
CN1C(=O)C[C@@H](C(=O)N[C@@H](Cc2c[nH]cn2)C(=O)N2CCC[C@H]2C(N)=O)NC1=O [taltirelin]	0	0	0	0	0.5	101%	100%	97.2%	97.6%	95.9%	106%	99.6%	99%	104%	108%	99%	96.8%	104%	97.4%	98.3%	105%	96.2%	99.5%	98.1%	101%	96.3%	94.7%	101%	97.8%	84.9%	> 10 µM	> 10 µM	> 10 µM	> 10 µM	> 10 µM
Oc1c(Br)cc(Br)c2cccnc12 [broxyquinoline]	0	0	0	0	0	89.4%	92.5%	93.2%	98.9%	112%	84.2%	108%	110%	100%	87.6%	102%	94.1%	102%	110%	99%	96%	98.7%	101%	98.2%	94.6%	108%	82.2%	90.7%	97.6%	99%	> 10 µM	> 10 µM	> 10 µM	> 10 µM	> 10 µM
Cn1c(=O)c2c(ncn2CC(=O)O)n(C)c1=O [acefylline]	0	0	0.1	0	0	102%	98%	114%	110%	105%	93%	98.8%	102%	95.1%	108%	104%	105%	107%	105%	86.5%	98.7%	97%	96.8%	95.5%	97.8%	104%	101%	114%	93.8%	102%	> 10 µM	> 10 µM	> 10 µM	> 10 µM	> 10 µM
